pIC50: −log10 of the molar value.
Tests used:
ERBB4 = ERBB4 (Homo sapiens, UniProt Q15303); assay: In vitro kinase inhibition profile (biochemical); settings: read-out: Biochemical (IC50 nmol/L)
[1] = system: RTK phosphorylation (PDGFRα, PDGFRβ, IGF1-R, c-Met, Axl, ALK); assay: Phospho-RTK proteome profiler array in sarcoma cells; settings: 3 hours drug, 10% FBS stimulation 1 hour
JAK1 = JAK1 (Homo sapiens, UniProt P23458); assay: In vitro kinase inhibition profile (biochemical); settings: read-out: Biochemical (IC50 nmol/L)
ALK = ALK (Homo sapiens, UniProt Q9UM73); assay: In vitro kinase inhibition profile (biochemical); settings: read-out: Biochemical (IC50 nmol/L)
Chain of ALK (Q9UM73 19-1620): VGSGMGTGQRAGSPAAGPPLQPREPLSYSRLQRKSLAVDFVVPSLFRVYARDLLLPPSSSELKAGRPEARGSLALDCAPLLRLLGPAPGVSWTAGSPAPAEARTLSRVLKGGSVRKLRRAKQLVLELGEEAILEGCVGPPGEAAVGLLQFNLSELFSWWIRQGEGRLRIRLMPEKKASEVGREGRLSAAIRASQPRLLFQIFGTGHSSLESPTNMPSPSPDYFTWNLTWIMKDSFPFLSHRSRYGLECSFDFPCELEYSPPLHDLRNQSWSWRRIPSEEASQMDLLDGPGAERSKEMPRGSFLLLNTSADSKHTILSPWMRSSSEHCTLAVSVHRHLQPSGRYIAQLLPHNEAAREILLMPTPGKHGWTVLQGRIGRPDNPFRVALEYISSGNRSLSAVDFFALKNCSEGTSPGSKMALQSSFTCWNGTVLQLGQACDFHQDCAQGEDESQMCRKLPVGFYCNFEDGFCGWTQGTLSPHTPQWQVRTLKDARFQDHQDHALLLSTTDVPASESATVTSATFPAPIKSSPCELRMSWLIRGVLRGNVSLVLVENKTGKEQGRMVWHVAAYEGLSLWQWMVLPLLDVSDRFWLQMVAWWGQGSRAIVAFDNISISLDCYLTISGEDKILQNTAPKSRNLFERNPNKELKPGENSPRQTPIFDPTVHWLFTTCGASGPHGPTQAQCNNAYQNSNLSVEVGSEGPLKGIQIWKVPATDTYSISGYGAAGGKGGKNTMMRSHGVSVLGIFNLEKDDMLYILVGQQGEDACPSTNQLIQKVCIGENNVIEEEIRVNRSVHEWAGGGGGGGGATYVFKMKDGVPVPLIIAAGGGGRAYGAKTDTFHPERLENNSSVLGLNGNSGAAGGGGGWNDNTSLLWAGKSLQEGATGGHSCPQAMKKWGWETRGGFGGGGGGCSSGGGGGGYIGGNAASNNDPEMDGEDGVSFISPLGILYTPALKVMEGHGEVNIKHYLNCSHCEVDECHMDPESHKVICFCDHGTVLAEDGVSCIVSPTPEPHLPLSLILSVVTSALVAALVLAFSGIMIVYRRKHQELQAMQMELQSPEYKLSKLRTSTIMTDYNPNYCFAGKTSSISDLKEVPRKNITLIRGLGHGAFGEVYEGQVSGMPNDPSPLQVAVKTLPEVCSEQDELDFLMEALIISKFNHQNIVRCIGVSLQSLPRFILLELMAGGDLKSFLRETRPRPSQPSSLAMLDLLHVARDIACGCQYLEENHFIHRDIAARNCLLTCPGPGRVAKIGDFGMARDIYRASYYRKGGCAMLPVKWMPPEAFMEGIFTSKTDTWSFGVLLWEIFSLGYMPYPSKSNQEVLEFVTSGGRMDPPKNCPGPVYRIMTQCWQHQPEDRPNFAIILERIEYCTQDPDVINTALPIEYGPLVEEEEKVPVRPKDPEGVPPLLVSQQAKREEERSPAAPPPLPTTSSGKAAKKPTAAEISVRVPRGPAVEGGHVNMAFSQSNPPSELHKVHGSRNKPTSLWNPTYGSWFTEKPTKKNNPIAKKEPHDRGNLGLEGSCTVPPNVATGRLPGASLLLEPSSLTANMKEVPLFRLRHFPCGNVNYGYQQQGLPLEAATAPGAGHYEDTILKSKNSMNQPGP

BTK = BTK (Homo sapiens, UniProt Q06187); assay: In vitro kinase inhibition profile (biochemical); settings: read-out: Biochemical (IC50 nmol/L)
[2] = mouse, in vivo
Procedure: […]. […] […]. Tumor size was measured twice weekly by caliper.

ARG = ARG (Homo sapiens, UniProt P42684); assay: In vitro kinase inhibition profile (biochemical); settings: read-out: Biochemical (IC50 nmol/L)
EPHB1 = EPHB1 (Homo sapiens, UniProt P54762); assay: In vitro kinase inhibition profile (biochemical); settings: read-out: Biochemical (IC50 nmol/L)
VEGFR3 (FLT4) = VEGFR3 (FLT4) (Homo sapiens, UniProt P35916); assay: In vitro kinase inhibition profile (biochemical); settings: read-out: Biochemical (IC50 nmol/L)
EPHA1 = EPHA1 (Homo sapiens, UniProt P21709); assay: In vitro kinase inhibition profile (biochemical); settings: read-out: Biochemical (IC50 nmol/L)
FYN = FYN (Homo sapiens, UniProt P06241); assay: In vitro kinase inhibition profile (biochemical); settings: read-out: Biochemical (IC50 nmol/L)
EPHA3 = EPHA3 (Homo sapiens, UniProt P29320); assay: In vitro kinase inhibition profile (biochemical); settings: read-out: Biochemical (IC50 nmol/L)
Chain of EPHA3 (P29320 21-983): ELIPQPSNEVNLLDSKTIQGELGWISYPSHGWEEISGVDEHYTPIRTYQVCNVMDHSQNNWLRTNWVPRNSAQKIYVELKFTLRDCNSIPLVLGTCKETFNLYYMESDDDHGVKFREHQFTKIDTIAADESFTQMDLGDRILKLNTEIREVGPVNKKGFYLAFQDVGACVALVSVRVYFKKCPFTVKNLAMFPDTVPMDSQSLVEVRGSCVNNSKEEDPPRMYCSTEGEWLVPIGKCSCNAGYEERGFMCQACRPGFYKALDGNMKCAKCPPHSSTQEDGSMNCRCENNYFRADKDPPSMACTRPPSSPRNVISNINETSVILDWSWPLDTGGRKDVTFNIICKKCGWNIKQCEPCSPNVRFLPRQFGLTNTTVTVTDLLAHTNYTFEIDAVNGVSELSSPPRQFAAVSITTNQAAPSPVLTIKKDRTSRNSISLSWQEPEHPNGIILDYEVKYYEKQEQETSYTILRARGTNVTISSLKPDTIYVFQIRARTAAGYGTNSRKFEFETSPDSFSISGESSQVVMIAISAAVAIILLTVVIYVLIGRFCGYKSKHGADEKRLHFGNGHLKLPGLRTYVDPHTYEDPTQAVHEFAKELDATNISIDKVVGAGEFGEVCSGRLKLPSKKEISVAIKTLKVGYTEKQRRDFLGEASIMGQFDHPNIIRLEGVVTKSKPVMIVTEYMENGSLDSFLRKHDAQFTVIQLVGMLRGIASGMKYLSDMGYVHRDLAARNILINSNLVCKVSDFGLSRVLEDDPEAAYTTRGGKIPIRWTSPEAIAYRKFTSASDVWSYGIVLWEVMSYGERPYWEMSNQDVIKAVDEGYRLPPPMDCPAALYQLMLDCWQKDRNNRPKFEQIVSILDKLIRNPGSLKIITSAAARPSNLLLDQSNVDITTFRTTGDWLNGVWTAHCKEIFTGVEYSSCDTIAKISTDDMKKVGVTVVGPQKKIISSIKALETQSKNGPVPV

VEGFR1 (FLT1) = VEGFR1 (FLT1) (Homo sapiens, UniProt P17948); assay: In vitro kinase inhibition profile (biochemical); settings: read-out: Biochemical (IC50 nmol/L)
INSR = INSR (Homo sapiens, UniProt P06213); assay: In vitro kinase inhibition profile (biochemical); settings: read-out: Biochemical (IC50 nmol/L)
[3] = system: LS141 (liposarcoma) cells; assay: Cell viability assay (Dojindo CCK-8); assay type: cell-based; settings: LS141, 72 hours, p < 0.05
ABL = ABL (Homo sapiens, UniProt P00519); assay: In vitro kinase inhibition profile (biochemical); settings: read-out: Biochemical (IC50 nmol/L)
Chain of ABL (P00519 whole entry): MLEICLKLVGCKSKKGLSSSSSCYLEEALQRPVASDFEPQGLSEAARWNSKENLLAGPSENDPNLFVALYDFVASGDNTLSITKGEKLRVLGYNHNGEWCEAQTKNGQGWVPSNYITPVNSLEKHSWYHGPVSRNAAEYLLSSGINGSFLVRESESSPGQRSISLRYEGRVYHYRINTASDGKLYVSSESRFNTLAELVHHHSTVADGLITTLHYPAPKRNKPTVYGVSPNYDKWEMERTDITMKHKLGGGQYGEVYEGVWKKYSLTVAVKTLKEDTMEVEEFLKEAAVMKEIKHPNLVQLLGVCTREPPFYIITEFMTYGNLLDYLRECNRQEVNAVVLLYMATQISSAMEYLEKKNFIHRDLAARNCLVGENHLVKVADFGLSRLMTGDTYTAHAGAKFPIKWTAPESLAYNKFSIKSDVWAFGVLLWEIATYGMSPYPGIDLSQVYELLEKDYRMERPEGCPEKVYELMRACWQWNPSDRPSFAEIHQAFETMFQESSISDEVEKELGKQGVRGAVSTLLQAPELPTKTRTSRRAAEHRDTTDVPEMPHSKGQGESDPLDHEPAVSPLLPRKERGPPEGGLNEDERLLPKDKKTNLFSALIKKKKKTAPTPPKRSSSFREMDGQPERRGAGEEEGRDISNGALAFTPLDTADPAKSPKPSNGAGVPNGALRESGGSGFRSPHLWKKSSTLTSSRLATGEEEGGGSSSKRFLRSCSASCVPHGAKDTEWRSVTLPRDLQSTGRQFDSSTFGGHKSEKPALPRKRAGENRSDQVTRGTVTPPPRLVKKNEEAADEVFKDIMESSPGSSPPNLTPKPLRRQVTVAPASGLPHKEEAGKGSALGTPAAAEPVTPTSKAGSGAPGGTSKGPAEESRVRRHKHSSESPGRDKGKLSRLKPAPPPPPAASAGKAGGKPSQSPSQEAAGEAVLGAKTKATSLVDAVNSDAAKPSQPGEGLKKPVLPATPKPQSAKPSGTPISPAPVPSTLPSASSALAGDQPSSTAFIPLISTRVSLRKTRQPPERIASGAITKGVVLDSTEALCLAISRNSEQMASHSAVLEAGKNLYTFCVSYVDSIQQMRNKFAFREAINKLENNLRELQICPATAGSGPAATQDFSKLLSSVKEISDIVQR

ITK = ITK (Homo sapiens, UniProt Q08881); assay: In vitro kinase inhibition profile (biochemical); settings: read-out: Biochemical (IC50 nmol/L)
HCK = HCK (Homo sapiens, UniProt P08631); assay: In vitro kinase inhibition profile (biochemical); settings: read-out: Biochemical (IC50 nmol/L)
Chain of HCK (P08631 whole entry): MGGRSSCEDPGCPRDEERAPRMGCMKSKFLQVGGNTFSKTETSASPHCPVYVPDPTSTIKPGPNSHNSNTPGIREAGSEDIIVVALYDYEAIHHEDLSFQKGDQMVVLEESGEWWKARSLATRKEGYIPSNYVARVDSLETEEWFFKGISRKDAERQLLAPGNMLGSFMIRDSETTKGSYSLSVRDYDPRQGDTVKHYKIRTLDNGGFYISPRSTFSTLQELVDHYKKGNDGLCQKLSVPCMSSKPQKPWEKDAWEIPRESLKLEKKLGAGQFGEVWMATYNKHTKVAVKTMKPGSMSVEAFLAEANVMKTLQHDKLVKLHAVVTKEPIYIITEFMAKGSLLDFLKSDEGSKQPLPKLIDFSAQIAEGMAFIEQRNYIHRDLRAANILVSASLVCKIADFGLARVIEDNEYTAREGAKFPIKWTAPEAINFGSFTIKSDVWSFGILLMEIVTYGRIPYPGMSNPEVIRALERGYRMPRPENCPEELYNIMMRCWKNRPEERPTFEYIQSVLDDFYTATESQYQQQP

EPHB3 = EPHB3 (Homo sapiens, UniProt P54753); assay: In vitro kinase inhibition profile (biochemical); settings: read-out: Biochemical (IC50 nmol/L)
ERBB2 = ERBB2 (Homo sapiens, UniProt P04626); assay: In vitro kinase inhibition profile (biochemical); settings: read-out: Biochemical (IC50 nmol/L)
JAK2 = JAK2 (Homo sapiens, UniProt O60674); assay: In vitro kinase inhibition profile (biochemical); settings: read-out: Biochemical (IC50 nmol/L)
FGFR4 = FGFR4 (Homo sapiens, UniProt P22455); assay: In vitro kinase inhibition profile (biochemical); settings: read-out: Biochemical (IC50 nmol/L)
Chain of FGFR4 (P22455 22-802): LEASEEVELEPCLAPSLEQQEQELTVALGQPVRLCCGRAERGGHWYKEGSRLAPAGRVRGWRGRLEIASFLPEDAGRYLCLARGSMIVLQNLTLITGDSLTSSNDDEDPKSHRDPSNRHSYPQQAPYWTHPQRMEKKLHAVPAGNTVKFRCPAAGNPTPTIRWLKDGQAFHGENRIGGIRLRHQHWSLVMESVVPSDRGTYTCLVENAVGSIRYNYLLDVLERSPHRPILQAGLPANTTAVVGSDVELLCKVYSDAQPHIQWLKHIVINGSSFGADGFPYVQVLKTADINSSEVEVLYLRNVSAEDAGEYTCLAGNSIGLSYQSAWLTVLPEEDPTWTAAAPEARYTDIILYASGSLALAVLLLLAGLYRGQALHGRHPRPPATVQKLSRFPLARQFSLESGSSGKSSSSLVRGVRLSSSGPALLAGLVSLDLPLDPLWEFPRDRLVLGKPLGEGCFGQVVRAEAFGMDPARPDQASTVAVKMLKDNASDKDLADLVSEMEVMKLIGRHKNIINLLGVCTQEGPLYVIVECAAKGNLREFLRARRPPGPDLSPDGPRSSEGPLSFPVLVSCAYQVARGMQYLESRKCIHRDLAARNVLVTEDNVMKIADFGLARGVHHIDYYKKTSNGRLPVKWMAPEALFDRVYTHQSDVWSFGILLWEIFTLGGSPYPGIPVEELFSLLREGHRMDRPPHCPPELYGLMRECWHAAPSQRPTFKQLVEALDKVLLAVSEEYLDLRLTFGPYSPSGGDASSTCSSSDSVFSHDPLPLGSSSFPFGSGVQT

MPNST cell line = assay: Colony formation assay; assay type: cell-based; settings: 500 nmol/L, 24 hours treatment, 10 to 14 days drug-free
Procedure: (§1) . Cell viability was measured using Dojindo Cell Counting Kit 8. Graphs were generated as a percentage of the no drug (ND) control. Error bars represent standard error mean. Combined data from at least two independent experiments is shown. Note: For Figure 4A, error bars are included; however, they are too small to be seen. C. Indicated cell lines were grown to 60% confluency in serum free media overnight. […] After the drug treatments, cells were stimulated in drug free media containing 10%FBS. […] Representative western blots from two independent experiments are shown. D. 1,000 cells were plated, in triplicate, onto 100mm dishes and treated the next day with the indicated drugs in media containing 10%FBS for 24 hours. Following treatment, cells were cultured in drug-free media for 10 to 14 days. Colonies were scored with ColCount software from Oxford Optronix (Abingdon, UK). Combined data from the experiment carried out in triplicate is shown.
1,000 cells were plated, in triplicate, onto 100 mm dishes and allowed to adhere overnight. Cells were treated for 24 hours with the indicated drugs. Following treatment, cells were cultured in drug-free media for 10 to 14 days. The resulting colonies were fixed in 20% ethanol and stained with 2.5% crystal violet. Colonies were scored with ColCount software from Oxford Optronix (Abingdon, UK).

LTK = LTK (Homo sapiens, UniProt P29376); assay: In vitro kinase inhibition profile (biochemical); settings: read-out: Biochemical (IC50 nmol/L)
EPHB4 = EPHB4 (Homo sapiens, UniProt P54760); assay: In vitro kinase inhibition profile (biochemical); settings: read-out: Biochemical (IC50 nmol/L)
RET = RET (Homo sapiens, UniProt P07949); assay: In vitro kinase inhibition profile (biochemical); settings: read-out: Biochemical (IC50 nmol/L)
p-AKT (Ser473) = assay: Western immunoblotting of downstream effector in sarcoma cells; assay type: cell-based; settings: western blot
Procedure: […]. Cell viability was measured using Dojindo Cell Counting Kit 8. Dose response graphs were generated as a percentage of the no drug control. Error bars represent standard error mean. Combined data from three independent experiments is shown. B. Indicated cell lines were grown to 60% confluency in serum free media overnight. […] After the drug treatments, cells were stimulated in drug free media containing 10%FBS. Media containing no FBS was used as unstimulated control. […] Representative western blots from two independent experiments are shown. ND=No Drug, Uns=Unstimulated control.
as §1, with “Following treatment, cells were cultured in drug-free media for 10 to 14 days.” left out, “Combined data from the experiment carried out in triplicate is shown.” left out

FGFR1 = FGFR1 (Homo sapiens, UniProt P11362); assay: In vitro kinase inhibition profile (biochemical); settings: read-out: Biochemical (IC50 nmol/L)
IGF1R = IGF1R (Homo sapiens, UniProt P08069); assay: In vitro kinase inhibition profile (biochemical); settings: read-out: Biochemical (IC50 nmol/L)
PYK2 = PYK2 (Homo sapiens, UniProt Q14289); assay: In vitro kinase inhibition profile (biochemical); settings: read-out: Biochemical (IC50 nmol/L)

In the case of COCCNCc1ccc(-c2cc3nccc(Oc4ccc(NC(=O)C5(C(=O)Nc6ccc(F)cc6)CC5)cc4F)c3s2)nc1 [MGCD516, Sitravatinib], the pIC50 (ERBB4) was less than 5.30, the “down-regulation of RTK phosphorylation (phospho-RTK array)” value [1] was “significant down-regulation of RTK phosphorylation” and the pIC50 (JAK1) was less than 5.00. The pIC50 (ALK) was less than 5.00, the pIC50 (BTK) was 6.52 and the “toxicity as determined by animal weight” value [2] was “did not result in toxicity”. It also gave a pIC50 (ARG) of 5.39, a pIC50 (EPHB1) of less than 5.00 and a pIC50 (VEGFR3 (FLT4)) of 8.70. For the same compound, the pIC50 (EPHA1) was less than 5.00, the pIC50 (FYN) was 6.47 and the pIC50 (EPHA3) was 9.00. The pIC50 (VEGFR1 (FLT1)) was 8.22, the pIC50 (INSR) was 5.26 and the “anti-proliferative effect compared with carbozantinib and foretinib” value [3] was “significantly higher anti-proliferative effect”. For the same compound, the pIC50 (ABL) was 5.52, the pIC50 (ITK) was less than 5.30 and the pIC50 (HCK) was 5.96. The pIC50 (EPHB3) was 6.60, the pIC50 (ERBB2) was less than 5.30 and the pIC50 (JAK2) was less than 5.00. The pIC50 (FGFR4) was less than 5.30, the colony number (MPNST cell line) was “significant reduction in colony number” and the pIC50 (LTK) was 5.71. The pIC50 (EPHB4) was 7.92, the pIC50 (RET) was 7.36 and the “inhibition of downstream effectors such as p-AKT (Ser473), comparison with imatinib and crizotinib” value (p-AKT (Ser473); DDLS and MPNST) was “significantly better inhibition”. For the same compound, the “down-regulation of p-AKT (Ser473)” value (p-AKT (Ser473); increasing concentrations of MGCD516) was “significant down-regulation of p-AKT (Ser473)”, the pIC50 (FGFR1) was less than 5.30 and the pIC50 (IGF1R) was 5.40. For the same compound, the pIC50 (PYK2) was 6.44.
